Assay results as given in PMC7238232, “Acamprosate Is a Substrate of the Human Organic Anion Transporter (OAT) 1 without OAT3 Inhibitory Properties: Implications for Renal Acamprosate Secretion and Drug–Drug Interactions” (Pharmaceutics, 2020).
“And” between values parts separate entries of the source, which are not always exact repeats. Identical values can stand only once. Like-named read-outs stand apart in the source and are kept apart here.

Experiments:
[1] = tested on: HEK293-Flp-In mock cells; assay: CellTiter-Glo cell viability assay, mock cells
[2] = tested on: HEK293-Flp-In OAT3 cells; assay: CellTiter-Glo cell viability assay, OAT3 transfected cells
[3] = tested on: HEK293-Flp-In OAT1 cells; assay: CellTiter-Glo cell viability assay, OAT1 transfected cells
[4] = tested on: human OAT1; conditions: cited from earlier work; for Km: read-out: Km of other OAT1 substrates
[5] = tested on: human kidney slices; parameters: method as in PMID 17255469; conditions: read-out: Km of PAH; cited from earlier work
[6] = tested on: HEK293-Flp-In mock cells; assay: Control uptake studies in HEK293-Flp-In mock cells; conditions: for effect on uptake of [14C]-PAH in mock cells: 9.5 µM [14C]-PAH, 200 µM PAH, 300 µM or 0.02–1022 µM probenecid, acamprosate; for effect on uptake of [3H]-E3S in mock cells: 0.02 µM [3H]-E3S, 200 µM E3S, 300 µM or 0.2–1022 µM probenecid, 10,000 µM acamprosate, Lab. 2
Procedure: All uptake experiments were performed on 24- or 96-well plates. Before the experiment initiation, the cells were incubated with either 500 or 200 µL∙well^−1 prewarmed buffer for 10 min at 37 °C in a microplate incubator (VWR International AB, Stockholm, Sweden), without shaking. […] The experiment was stopped by adding 200 µL∙well^−1 of ice-cold buffer and subsequent rinse three times with the same amount of buffer. […] A total of 50 µL of cell lysate from each well was transferred to 96-well Luma plates bottom coated with dry scintillant. Then, 2∙20 µL of each donor and three 50 µL blank samples were applied on the same plate. The dry plates were covered with transparent seals and analyzed using a TopCount NXT Microplate Scintillation and Luminescence Counter (Perkin Elmer, Waltham, MA, USA). The remaining 20 µL cell lysate was neutralized with 20 µL 1M HCl∙well^−1, samples were mixed thoroughly and the total protein content in all the wells was measured using a BCA protein assay kit, microplate method, and a Tecan Safire II fluorometer (Tecan Austria GmbH, Grödig, Austria). […] The total protein content was measured by using a BCA protein assay kit and a FLUOStar Omega fluorescence microplate reader (BMG Labtech, Ortenberg, Germany). The protein assay for the OAT3 and mock cell lines was performed in four independent wells of each cell line, seeded and treated in the same manner as the cells used in the uptake assay. For all the OAT1, OAT3, and mock isotope uptake studies, the radiolabelled tracer accumulation (pmol) in each well was calculated by first determining the activity of the isotope (DPM∙pmol^−1) from the radioactivity (DPM) of the donor sample divided by the theoretical isotope concentration (pmol), then dividing the total radioactivity in the well (DPM) to the specific activity of the isotope (DPM∙pmol^−1).

[7] = tested on: OAT; parameters: method as in PMID 23085876; conditions: OAT mediated DDI by probenecid, compared to control; cited from earlier work
[8] = probenecid, oral, cited from earlier work
[9] = target: T1, OAT3 (Homo sapiens, UniProt Q8TCC7); assay: [3H]-E3S uptake and its inhibition in HEK293-Flp-In OAT3 cells; type: cell-based; conditions: 0.02 µM [3H]-E3S; 200 µM E3S, 300 µM probenecid, 1000 or 10,000 µM acamprosate; Lab. 2
T1 sequence (Q8TCC7 1-542): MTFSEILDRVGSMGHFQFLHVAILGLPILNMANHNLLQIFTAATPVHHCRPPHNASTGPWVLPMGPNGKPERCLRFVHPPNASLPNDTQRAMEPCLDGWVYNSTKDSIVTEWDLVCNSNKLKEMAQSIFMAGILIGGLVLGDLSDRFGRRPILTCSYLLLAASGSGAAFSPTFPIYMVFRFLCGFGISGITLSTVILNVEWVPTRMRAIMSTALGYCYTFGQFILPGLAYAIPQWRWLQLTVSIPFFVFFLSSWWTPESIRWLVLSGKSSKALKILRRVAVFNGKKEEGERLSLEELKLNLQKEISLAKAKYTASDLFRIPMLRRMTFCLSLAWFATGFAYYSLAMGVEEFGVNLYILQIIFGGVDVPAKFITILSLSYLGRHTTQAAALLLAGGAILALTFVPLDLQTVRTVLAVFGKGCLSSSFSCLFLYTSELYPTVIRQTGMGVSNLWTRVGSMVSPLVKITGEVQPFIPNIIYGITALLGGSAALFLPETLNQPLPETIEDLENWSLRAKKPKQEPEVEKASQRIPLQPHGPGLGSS
Procedure: All uptake experiments were performed on 24- or 96-well plates. Before the experiment initiation, the cells were incubated with either 500 or 200 µL∙well^−1 prewarmed buffer for 10 min at 37 °C in a microplate incubator (VWR International AB, Stockholm, Sweden), without shaking. […] The experiment was stopped by adding 200 µL∙well^−1 of ice-cold buffer and subsequent rinse three times with the same amount of buffer. In Lab. 1 the sample analysis of the OAT1/OAT3/mock studies consisted in removing the rinsing buffer and lysing the cells with 70 µL 1M NaOH, following by incubation for 60 min at 37 °C and 100 rpm. A total of 50 µL of cell lysate from each well was transferred to 96-well Luma plates bottom coated with dry scintillant. Then, 2∙20 µL of each donor and three 50 µL blank samples were applied on the same plate. The dry plates were covered with transparent seals and analyzed using a TopCount NXT Microplate Scintillation and Luminescence Counter (Perkin Elmer, Waltham, MA, USA). The remaining 20 µL cell lysate was neutralized with 20 µL 1M HCl∙well^−1, samples were mixed thoroughly and the total protein content in all the wells was measured using a BCA protein assay kit, microplate method, and a Tecan Safire II fluorometer (Tecan Austria GmbH, Grödig, Austria). For the experiments in Lab. 2, the cells were lysed by adding 200 µL 0.1% Triton X-100 and incubated for 5 min at 37 °C and 100 rpm. […] The total protein content was measured by using a BCA protein assay kit and a FLUOStar Omega fluorescence microplate reader (BMG Labtech, Ortenberg, Germany). The protein assay for the OAT3 and mock cell lines was performed in four independent wells of each cell line, seeded and treated in the same manner as the cells used in the uptake assay. For all the OAT1, OAT3, and mock isotope uptake studies, the radiolabelled tracer accumulation (pmol) in each well was calculated by first determining the activity of the isotope (DPM∙pmol^−1) from the radioactivity (DPM) of the donor sample divided by the theoretical isotope concentration (pmol), then dividing the total radioactivity in the well (DPM) to the specific activity of the isotope (DPM∙pmol^−1).
A range of preincubation solutions was prepared at the same concentrations of acamprosate applied in the inhibition assays. Acamprosate was dissolved in HBSS buffered with 10 mM HEPES and the pH was adjusted to 7.40 ± 0.01. The preincubation solutions were prewarmed to 37 °C and applied to the corresponding cells after removing the cell growth medium. The preincubation was done for 3 h, at 37 °C, without shaking. After the preincubation, the solutions were removed, and the inhibition experiment was performed as described in the Section 2.6.
The obtained intracellular amounts (pmol) were normalized to the assay time (min) and cell surface area (cm^2) or protein amount (mg protein) to obtain a term hereafter referred to as uptake rate. […] Assuming competitive interaction, equilibrium dissociation constants, Ki, were calculated from the IC50 value for each substrate/inhibitor pair, at substrate Km, using the Cheng–Prusoff equation [24].

[10] = Clinical pharmacokinetics in humans (literature); conditions: probenecid, oral, calculated from Cmax and fu
[11] = substrate: CC(=O)NCCCS(=O)(=O)O; assay: Acamprosate intracellular uptake and inhibition of uptake in HEK293-Flp-In OAT1 cells (LC/MS-MS); type: cell-based, human; conditions: other: HEK293-Flp-In OAT1 cells, 10 min, pH 7.4, Lab. 1
[12] = 3 h, 1000 µM p-aminohippuric acid, 200 µM estrone-3-sulfate (Figure 8A)

**Q.** For CCCCCCCCCCCCOS(=O)(=O)[O-].[Na+] [SDS, sodium dodecyl sulfate], which “decrease in cell viability” value ([1]; 0.5% SDS, 3 h incubation) is on record?
**A.** The value was “more than 95%”.

**Q.** And the “decrease in cell viability” value ([2]; 0.5% SDS, 3 h incubation)?
**A.** The value was “more than 95%”.

**Q.** What about the “decrease in cell viability” value ([3]; 0.5% SDS, 3 h incubation) of the same molecule?
**A.** The value was “approximately 50%”.

**Q.** Which IC50 ([4]; read-out: IC50 of other drug substances inhibiting OAT1) does the source give for CC(=O)Nc1ccc(O)cc1 [acetaminophen] here?
**A.** The IC50 was 639 µM.

**Q.** With Nc1nc2c(ncn2COCCO)c(=O)[nH]1 [acyclovir] as the molecule, how does the Km [4] read?
**A.** The Km was 342 µM.

**Q.** For O=S(=O)(O)CCSSCCS(=O)(=O)O [dimesna], which Km [4] is on record?
**A.** The Km was 636 µM.

**Q.** For Nc1nc(O)c2ncn(COC(CO)CO)c2n1 [ganciclovir], which Km [4] is on record?
**A.** Its Km is 896 µM.

**Q.** For CN(Cc1cnc2nc(N)nc(N)c2n1)c1ccc(C(=O)N[C@@H](CCC(=O)O)C(=O)O)cc1 [methotrexate], which Km [4] is on record?
**A.** Its Km is 554 to 724 µM.

**Q.** What does the source list for Nc1ccc(C(=O)NCC(=O)O)cc1 [p-aminohippuric acid]?
**A.** Km [5]: ~39 µM; effect on cell viability [1, 12]: did not decrease cell viability; effect on cell viability [2, 12]: did not decrease cell viability; effect on cell viability ([3]; 3 h, 1000 µM p-aminohippuric acid, 200 µM estrone-3-sulfate (Figure 8B)): did not decrease cell viability; effect on uptake of [14C]-PAH in mock cells ([6]; Lab. 1): no effect; saturability of dose-dependent substrate uptake in mock cells ([6]; same substrate concentrations as in transfected cells, acamprosate 0.33–3300 µM): not saturable

**Q.** With CCCN(CCC)S(=O)(=O)c1ccc(C(=O)O)cc1 [probenecid] as the molecule, how does the “change in AUC of other inhibited drugs” value [7] read?
**A.** Its value is 1.1–2.4 fold.

**Q.** And the “change in CLR of other inhibited drugs” value [7]?
**A.** Its value is 0.3–0.7 fold.

**Q.** What about the Cmax ([8]; 500 mg) of the same molecule?
**A.** Its Cmax is 124 ± 30 µM.

**Q.** What about the “fu, fraction unbound in plasma” value ([8]; 500 mg) of the same molecule?
**A.** Its value is 0.07 [53].

**Q.** And the Cmax ([8]; 1000 mg)?
**A.** The Cmax was 244 ± 94 µM.

**Q.** What about the “fu, fraction unbound in plasma” value ([8]; 1000 mg) of the same molecule?
**A.** Its value is 0.11 [53].

**Q.** And the Cmax ([8]; 2000 mg)?
**A.** The Cmax was 521 ± 166 µM.

**Q.** What about the “fu, fraction unbound in plasma” value ([8]; 2000 mg) of the same molecule?
**A.** Its value is 0.17 [53].

**Q.** What about the “effect on uptake of [3H]-E3S in OAT3 expressing cells” value [9] of the same molecule?
**A.** The value was “significantly decreased”.

**Q.** And the “Cmax,u” value ([10]; 500 mg)?
**A.** The value was 8.66 ± 2.09 µM.

**Q.** And the “Cmax,u” value ([10]; 1000 mg)?
**A.** Its value is 26.83 ± 10.37 µM.

**Q.** What about the “Cmax,u” value ([10]; 2000 mg) of the same molecule?
**A.** Its value is 88.53 ± 28.24 µM.

**Q.** And the “effect on uptake of [3H]-E3S in mock cells” value [6]?
**A.** Its value is “no inhibition”.

**Q.** What about the “effect on uptake of [3H]-E3S in mock cells” value ([6]; listed as Probenecid) of the same molecule?
**A.** The value was “no inhibitory effect”.

**Q.** What about the “effect on uptake of [14C]-PAH in mock cells” value ([6]; Lab. 1) of the same molecule?
**A.** Its value is “no effect”.

**Q.** What about the “effect on uptake of [14C]-PAH in mock cells” value ([6]; Lab. 1, listed as Probenecid) of the same molecule?
**A.** Its value is “no inhibitory effect”.

**Q.** And the “effect on acamprosate uptake in mock cells” value ([6]; 200 µM acamprosate, 0.02–1022 µM probenecid, Lab. 1)?
**A.** The value was “no inhibitory effect”.

B1: OAT1 (Homo sapiens) (protein)
chain: MAFNDLLQQVGGVGRFQQIQVTLVVLPLLLMASHNTLQNFTAAIPTHHCRPPADANLSKNGGLEVWLPRDRQGQPESCLRFTSPQWGLPFLNGTEANGTGATEPCTDGWIYDNSTFPSTIVTEWDLVCSHRALRQLAQSLYMVGVLLGAMVFGYLADRLGRRKVLILNYLQTAVSGTCAAFAPNFPIYCAFRLLSGMALAGISLNCMTLNVEWMPIHTRACVGTLIGYVYSLGQFLLAGVAYAVPHWRHLQLLVSAPFFAFFIYSWFFIESARWHSSSGRLDLTLRALQRVARINGKREEGAKLSMEVLRASLQKELTMGKGQASAMELLRCPTLRHLFLCLSMLWFATSFAYYGLVMDLQGFGVSIYLIQVIFGAVDLPAKLVGFLVINSLGRRPAQMAALLLAGICILLNGVIPQDQSIVRTSLAVLGKGCLAASFNCIFLYTGELYPTMIRQTGMGMGSTMARVGSIVSPLVSMTAELYPSMPLFIYGAVPVAASAVTVLLPETLGQPLPDTVQDLESRWAPTQKEAGIYPRKGKQTRQQQEHQKYMVPLQASAQEKNGL
notes: expressed in transfected cells; host or cells: HEK293-Flp-In
**Q.** With B1 as the molecule, how does the Km [11] read?
**A.** Its Km is 700 µM and 698 ± 192 µM.
